Reference: the OPERA property sets (Mansouri et al. 2018)

details: not given

Point of comparison: `COc1cccc(OC)c1C#N`, boiling point 310 °C. Against it:
- CC(=O)Oc1ccccc1 — lower, 196 °C
- Cl[Si](Cl)(c1ccccc1)c1ccccc1 — lower, 305 °C
- FC(F)(F)C(F)(I)C(F)(F)F — lower, 40 °C
- CC1OC(C)OC(C)O1 (stereo not given) — lower, 124 °C
- CCCCCCC(=O)CCCCCC — lower, 261 °C
- CC(=O)c1cc(C)ccc1O — lower, 210 °C
- CCOC(=O)C(C(C)=O)C(=O)OCC — lower, 232 °C
- CSC — lower, 37.3 °C
- CC[Si](OC)(OC)OC — lower, 124 °C
- O=NN1CCCC1 — lower, 214 °C
- CC=C(Cl)Cl — lower, 76.5 °C
- FC(F)(F)C(F)(F)C(F)(F)C(F)(F)C(F)(F)C(F)(F)C(F)(F)C(F)(F)C(F)(F)C(F)(F)I — lower, 195 °C
- Cc1cc(N)n(-c2ccccc2)n1 — higher, 333 °C
- CC(C)(C)OC(=O)C(F)(F)F — lower, 83 °C
- C#CC=O — lower, 60 °C
- CCOS(=O)OCC — lower, 158 °C
- O=C1NCc2ccccc21 — higher, 338 °C
- CCCNC(=O)NCCC — lower, 255 °C
- CC1(C)CC(N)CC(C)(C)N1 — lower, 188 °C
- CS — lower, 5.9 °C
- CCCCCCCCCCCCCCCCCO — higher, 333 °C
- C=C(C)c1cccc(C)c1 — lower, 185 °C
- CC(C)=C1OC(=O)C1(C)C — lower, 170 °C
- CCC/C=C/CCCCCC — lower, 193 °C
- FC(Cl)=C(F)Cl — lower, 21.1 °C
- NCCN1CCNCC1 — lower, 220 °C
- ClCCC[Si](Cl)(Cl)Cl — lower, 182 °C
- CC(C)C(C)(C)O — lower, 118 °C
- CCN1C(=O)CCC1=O — lower, 236 °C
- CCCCCCCCCC(C)=O — lower, 232 °C
- C1COC1 — lower, 47.6 °C
- CCC(C)I (stereo not given) — lower, 120 °C
- FC1=C(F)C(F)(F)C1(F)F — lower, 5.5 °C
- CC1=C(C)CCC1 — lower, 106 °C
- C=C(C)CCC(C)C — lower, 112 °C
- ClCCBr — lower, 107 °C
- CC(C)(C)OOC(C)(C)C — lower, 111 °C
- CCCCCCO — lower, 158 °C
- Nc1ccc(-c2ccc(N)cc2)cc1 — higher, 401 °C
- CC1CC(C)CC(O)C1 (stereo not given) — lower, 187 °C
- C=C(C)C(=C)C — lower, 68.8 °C
- COc1ccccc1-c1ccccc1OC — lower, 308 °C

Point of comparison: `Cc1cccc2c1Cc1ccccc1-2`, log10 vapour pressure (mmHg) -3.52. Against it:
- CC(=O)Oc1ccccc1 — higher, -0.4
- CC1OC(C)OC(C)O1 (stereo not given) — higher, 1.04
- CCCCCCC(=O)CCCCCC — higher, -2.18
- CSC — higher, 2.7
- O=NN1CCCC1 — higher, -1.22
- CC=C(Cl)Cl — higher, 1.96
- CS — higher, 3.18
- CCOc1ccc(C(COCc2cccc(Oc3ccc(Cl)cc3)c2)C(F)(F)F)cc1 (stereo not given) — lower, -9.01
- CON=C(Cc1cccnc1)c1ccc(Cl)cc1Cl — lower, -4.89
- CC(C)OC(=O)C(O)(c1ccc(Cl)cc1)c1ccc(Cl)cc1 — lower, -6.74
- FC(Cl)=C(F)Cl — higher, 2.95
- CN1CSC(=S)N(C)C1 — lower, -5.55
- CCCOC(=O)NCCCN(C)C — higher, -1.26
- CC(C)C(C)(C)O — higher, 0.505
- CCCCCCCCCC(C)=O — higher, -1.38
- C1COC1 — higher, 2.51
- CCC(C)I (stereo not given) — higher, 1.23
- ClCCBr — higher, 1.52
- CC(=O)CC(=O)Nc1ccccc1 — lower, -4.28
- CC(C)(C)OOC(C)(C)C — higher, 1.4
- CCCCCCO — higher, -0.0325
- C=C(C)C(=C)C — higher, 2.18

Point of comparison: `N#CCCN(CCO)c1ccc(N=Nc2ccc([N+](=O)[O-])cc2Cl)cc1`, melting point 157 °C. Against it:
- CC(=O)Oc1ccccc1 — lower, -30 °C
- CCCCC(CC)COC(=O)CCCCCCCCC(=O)OCC(CC)CCCC (stereo not given) — lower, -48 °C
- C=Cn1c2ccccc2c2ccccc21 — lower, 65 °C
- CCCCCCCCCCCCCCCCCC(=O)Oc1ccccc1 — lower, 52 °C
- Cc1c2ccccc2c(C)c2ccccc12 — higher, 183 °C
- CC1OC(C)OC(C)O1 (stereo not given) — lower, 12.6 °C
- CCCCCCCC/C=C/CCCCCCCC(=O)O — lower, 29.2 °C
- CCCCCCC(=O)CCCCCC — lower, 33 °C
- CCN1C[C@]2(COC)[C@H](O)C[C@H](OC)[C@]34C1[C@H]([C@H](OC)[C@H]23)[C@]1(O)[C@H]2[C@@H](O)[C@](O)(C[C@H]24)[C@@H](OC)[C@@H]1O — lower, 132 °C
- CC(=O)c1cc(C)ccc1O — lower, 50 °C
- c1ccc2c(c1)c(Cc1cn(CN3CCCCC3)c3ccccc13)cn2CN1CCCCC1 — lower, 138 °C
- CC(C)OC(=O)OOC(=O)OC(C)C — lower, 10 °C
- CSC — lower, -98.3 °C
- CCCCCCCCCCCC(C)O (stereo not given) — lower, 23 °C
- O=C1CN=C(c2ccccc2)c2cc([N+](=O)[O-])ccc2N1 — higher, 225 °C
- CN1CCN(CCCN2c3ccccc3Sc3ccc(Cl)cc32)CC1 — higher, 228 °C
- Oc1ccc([C@H](O)[C@H]2CCCCN2)cc1O — higher, 204 °C
- Oc1ncnc2[nH]ncc12 — higher, 350 °C
- Cn1c([N+](=O)[O-])cnc1COC(N)=O — higher, 168 °C
- FC(F)(F)C(F)(F)C(F)(F)C(F)(F)C(F)(F)C(F)(F)C(F)(F)C(F)(F)C(F)(F)C(F)(F)I — lower, 66 °C
- Cc1cc(N)n(-c2ccccc2)n1 — lower, 116 °C
- CCCCCCCCCCCCCCCCCCCO — lower, 63.3 °C
- CC(C)=CCOc1c2occc2cc2ccc(=O)oc12 — lower, 102 °C
- O=C1NCc2ccccc21 — lower, 151 °C
- CCOc1ccc([N+](=O)[O-])cc1N — lower, 96.5 °C
- CCCNC(=O)NCCC — lower, 105 °C
- CCOC(=O)C(C(=O)OCC)c1ccccc1 — lower, 16.5 °C
- CC1(C)CC(N)CC(C)(C)N1 — lower, 17 °C
- Cc1cccc2c1Cc1ccccc1-2 — lower, 85 °C
- CS — lower, -123 °C
- O=C(c1ccccc1)c1ccc(C(F)(F)F)cc1 — lower, 115 °C
- C=C(Br)c1ccccc1 — lower, -44 °C
- CCCCCCCCCCCC(=O)OC(=O)CCCCCCCCCCC — lower, 41.8 °C
- CCCCCCCCCCCCCCCCCO — lower, 53.8 °C
- COc1cccc(OC)c1C#N — lower, 119 °C
- Clc1cc(Cl)c2c(oc3c(Cl)cccc32)c1Cl — higher, 177 °C
- C[C@]12CCC(=O)C=C1CC[C@@H]1[C@@H]2CC[C@]2(C)C(=O)CC[C@@H]12 — higher, 158 °C
- CC(C)OC(=O)C(O)(c1ccc(Cl)cc1)c1ccc(Cl)cc1 — lower, 73 °C
- CCOC(=O)/C=C1/SC(N2CCCCC2)C(=O)N1C (stereo not given) — lower, 140 °C
- Nc1ccc(S(=O)(=O)Nc2cnccn2)cc1 — higher, 251 °C
- CC(C)=C1OC(=O)C1(C)C — lower, -18 °C
- CCC/C=C/CCCCCC — lower, -80.3 °C
- COc1cc(C(=O)c2ccc(Cl)cc2)cc(OC)c1OCCN1CCOCC1 — lower, 91.5 °C
- FC(Cl)=C(F)Cl — lower, -130 °C
- O=[N+]([O-])c1ccc2c(c1)oc1ccccc12 — higher, 182 °C
- CN1CSC(=S)N(C)C1 — lower, 106 °C
- O=C(O)c1cc(Cl)c(Cl)c(Cl)c1Cl — higher, 194 °C
- Cl.NCc1ccccc1 — higher, 262 °C
- O=C(N/N=C/c1ccccc1O)c1ccncc1 — higher, 232 °C
- CCn1cc(C(=O)O)c(=O)c2cnc(N3CCNCC3)nc21 — higher, 254 °C
- CC(C)C(C)(C)O — lower, -14 °C
- COC(=O)NS(=O)(=O)c1ccc(N)cc1 — lower, 144 °C
- CC(C)OC(=O)C(C)(C)Oc1ccc(C(=O)c2ccc(Cl)cc2)cc1 — lower, 80.5 °C
- CCN1C(=O)CCC1=O — lower, 26 °C
- CCCCCCCCCC(C)=O — lower, 15 °C
- C1COC1 — lower, -97 °C
- CCC(C)I (stereo not given) — lower, -104 °C
- FC1=C(F)C(F)(F)C1(F)F — lower, -60 °C
- Cc1coc2ccccc2c1=O — lower, 68 °C
- CC1=C(C)CCC1 — lower, -90.4 °C
- Cc1cccc(N(C)C(=S)Oc2ccc3ccccc3c2)c1 — lower, 111 °C
- C[C@@H]1CCC[C@H](C)C1 (racemic) — lower, -82.8 °C
- ClCCBr — lower, -16.7 °C
- CC(=O)CC(=O)Nc1ccccc1 — lower, 86 °C
- CC(C)(C)OOC(C)(C)C — lower, -40 °C
- CCOC(=O)COC(=O)c1cc(Oc2ccc(C(F)(F)F)cc2Cl)ccc1[N+](=O)[O-] — lower, 65 °C
- CCN(CCO)CCCC(C)Nc1ccnc2cc(Cl)ccc12 (stereo not given) — lower, 90 °C
- CCCCCCO — lower, -44.6 °C
- Nc1ccc(-c2ccc(N)cc2)cc1 — lower, 120 °C
- O=C(N[C@H](CO)[C@H](O)c1ccc([N+](=O)[O-])cc1)C(Cl)Cl — lower, 150 °C
- CC1CC(C)CC(O)C1 (stereo not given) — lower, 11.6 °C
- C=CCN1CCCC1CNC(=O)c1cc(S(=O)(=O)NC)c(N)cc1OC (stereo not given) — higher, 169 °C
- C=C(C)C(=C)C — lower, -76 °C
- CCS(=O)(=O)c1nc2ccccn2c1S(=O)(=O)NC(=O)Nc1nc(OC)cc(OC)n1 — higher, 201 °C

With `Cl[Si](Cl)(c1ccccc1)c1ccccc1` the ready biodegradability was “not readily biodegradable”.
For `CC1OC(C)OC(C)O1` (stereo not given), the ready biodegradability was “not readily biodegradable”.
In the case of `C#CCCOC1CCCCO1` (stereo not given), the ready biodegradability is reported as “readily biodegradable”.
In the case of `CS`, the ready biodegradability is reported as “readily biodegradable”.
With `C=C(Br)c1ccccc1` the ready biodegradability was “not readily biodegradable”.
In the case of `CCCCCCCCCCCCCCCCCO`, the ready biodegradability is reported as “readily biodegradable”.
With `CN1CSC(=S)N(C)C1` the ready biodegradability was “not readily biodegradable”.
With `NCCN1CCNCC1` the ready biodegradability was “not readily biodegradable”.
With `OCCNCO` the ready biodegradability was “readily biodegradable”.
With `CC(=O)CC(=O)Nc1ccccc1` the ready biodegradability was “readily biodegradable”.
For `CCCCCCO`, the ready biodegradability was “readily biodegradable”.

Point of comparison: `CN1CSC(=S)N(C)C1`, log10 Henry constant (atm·m³/mol) -9.58. Against it:
- CSC — higher, -2.79
- CCCOC(=O)NCCCN(C)C — higher, -8.83
- CCCCCCCCCC(C)=O — higher, -4.2
- Clc1cc(Cl)c(-c2cccc(Cl)c2Cl)cc1Cl — higher, -4.13
- ClCCBr — higher, -3.04
- CCCCCCO — higher, -4.77
- Clc1ccc(-c2cccc(Cl)c2Cl)c(Cl)c1 — higher, -3.85

Point of comparison: `Clc1cc(Cl)c(-c2cccc(Cl)c2Cl)cc1Cl`, log10 Koc (L/kg) 5.69. Against it:
- CN1CSC(=S)N(C)C1 — lower, 1
- CCCOC(=O)NCCCN(C)C — lower, 2.49
- COC(=O)NS(=O)(=O)c1ccc(N)cc1 — lower, 1.6
- Nc1ccc(-c2ccc(N)cc2)cc1 — lower, 3.46

With `Clc1cc(Cl)c2cccc(Cl)c2c1` the log10 Koa was 7.32.

same assay, conditions: fish

With `CC1OC(C)OC(C)O1` (stereo not given) the log10 BCF was 0.48.

Point of comparison: `Clc1ccc(-c2cccc(Cl)c2Cl)c(Cl)c1`, log10 biotransformation half-life (days) 2.62. Against it:
- CCCCC(C)CCCC(C)C (stereo not given) — lower, 0.32
- Clc1cc(Cl)c(-c2cccc(Cl)c2Cl)cc1Cl — within 0.2 log units, 2.55
